# Where two headings read alike, the source gives them in different places. Non-standard residues stand in square brackets, D forms with d. Residues, ends and D or L forms follow the SMILES beside them. ξ: configuration not given here. *: point of attachment. dNMe2Nal = CN[C@H](Cc1ccc2ccccc2c1)C(=O)O; 1Nal = N[C@@H](Cc1cccc2ccccc12)C(=O)O; 2Nal = N[C@@H](Cc1ccc2ccccc2c1)C(=O)O; d2Nal = N[C@H](Cc1ccc2ccccc2c1)C(=O)O; ξNMe2Nal = CNC(Cc1ccc2ccccc2c1)C(=O)O; ξ2Nal = NC(Cc1ccc2ccccc2c1)C(=O)O; hPhe = N[C@@H](CCc1ccccc1)C(=O)O; Tic = O=C(O)[C@@H]1Cc2ccccc2CN1; Isonicotinoyl = O=C(c1ccncc1)*; Nle = CCCC[C@H](N)C(=O)O; Inp = O=C(O)C1CCNCC1; ξK = NCCCCC(N)C(=O)O; Ahp = NCCCCCCC(=O)O; Ava = NCCCCC(=O)O; GABA = NCCCC(=O)O
# Experiments:
# rat pituitary cells = rat pituitary cells (Rattus norvegicus, UniProt O08725); conditions: read-out: PIT Cell EC50, GH release, 15 min incubation
# Chain of rat pituitary cells (O08725 whole entry, the tested form may be a part): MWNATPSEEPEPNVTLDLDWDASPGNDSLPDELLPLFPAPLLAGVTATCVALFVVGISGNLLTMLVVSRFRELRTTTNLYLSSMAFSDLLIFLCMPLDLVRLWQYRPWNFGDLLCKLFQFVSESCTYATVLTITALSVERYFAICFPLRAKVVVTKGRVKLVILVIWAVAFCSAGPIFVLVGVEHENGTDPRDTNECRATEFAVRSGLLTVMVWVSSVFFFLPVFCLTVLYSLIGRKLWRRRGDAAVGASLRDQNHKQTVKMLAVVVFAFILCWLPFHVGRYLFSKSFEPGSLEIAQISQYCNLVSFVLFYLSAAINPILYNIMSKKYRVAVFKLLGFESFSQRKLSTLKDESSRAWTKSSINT
# Description: Pituitaries from ten rats were removed, the posterior pituitary discarded and the anterior pituitary placed in Hanks' Balanced Salt Solution (HBSS: without calcium chloride, w/o magnesium chloride, w/o magnesium sulfate; Gibco) containing 20 mM HEPES (Gibco) and 100 U/ml penicillin streptomycin (PS: JRH Biosciences). Under sterile conditions, pituitaries were rinsed twice then minced into small fragments with a razor blade. […] After the incubation, fragments were triturated to yield small clumps and single cells. The cells were centrifuged 1000× g for 5 min, resuspended, counted and plated at a final cell concentration of 100,000 cells/ml. Incubation media was DME low glucose media w/NaHCO3 (Gibco) containing 20 mM hepes, 100 U/ml PS and 10% FBS (Hyclone A-111-L). Cells were plated at 0.5 ml per well in 48 well plates (Falcon) and incubated at 37° C. in 5% C02 for three days. For challenges to determine release of other pituitary hormones cells were plated at 200,000 cells per ml with 2 ml per well of a Swell plate (Corning). Challenge: A (inip)bbFK-NH2 stock (or other GHRP) concentration of 1 mM was made in DMSO and diluted with warmed media approximately 30 min prior to use. The highest concentration of DMSO in media was 0.1%. Stock solutions (1 mM) of rat GHRH, somatostatin (Sigma) and GHRP antagonist HwkWfK were made fresh in media and diluted appropriately. The media used in all challenges and washing steps was DME low glucose with 20 mM Hepes, 100 U/ml PS, 10% FBS. Media was warmed to 37° C. and gassed by placing it into the incubator prior to challenge. On day three, the media was discarded and fresh media (approximately 1 ml) added for the first of three washes. After the last wash, the plate was placed back in the incubator for a 15 min pre-incubation. Then cells were washed 2× (with warmed and gassed media) and fresh 0.5 ml media were added for the second 15 min. pre-incubation. After the second pre-incubation cells were washed 2× as above and 0.5 ml of control and test solutions were added for a final 15 min incubation. After this incubation, the media were removed for subsequent GH ELISA. GH ELISA: A two-site ELISA was used to determine rat GH concentration in the media. […] After blocking and washing, standard (rat GH reference preparation: Parlow) and challenge media is diluted 1:20 prior to GH assay were added for a 1 hr room temperature incubation. STATISTICS: The mean for each group was determined and analyzed by one-way analysis of variance with a post-hoc Student-Newman-Keuls. Significance is defined as P<0.05. The EC50 was calculated using a 4-parameter curve-fit program (Kaleidagraph). Three to four independent EC50s were used to derive the mean and SEM. RIA of pituitary hormones: LH, FSH, TSH, and Prolactin were determined with commercially available kits from Amersham, and ACTH levels were determined by a RIA kit from ICN. CALCIUM FLUX EXPERIMENT: Pituitary cells were plated on fibronectin (Collaborative Research) coated two-chambered slide wells (Nunc). After four days in monolayer culture cells were rinsed three times with HBSS (Gibco) in 1% BSA and 15 mM HEPES and then incubated for 30 min at 37° C. with 5 μM Indo-1 AM (Molecular Probes, Eugene) in HBSS also containing 1% pluronic F127 (Molecular Probes). The cells were rinsed once and fresh media added for RT incubation. […] C^++ flux was imaged with a Meridian ACAS 570 using stage scanning at 21 second intervals.
# growth hormone secretion = test: GHRP induced growth hormone secretion, intravenous administration (Rat IV); type: in vivo; conditions: iv injection, serum GH 10 min after injection
# Description: Immature weanling female Sprague Dawley rats were purchased from Charles River Labs (Portage, […].) and group housed with water and food available ad libitum. When the rats were 24-30 days old (weighing 50-90 g) they were anesthetized with pentobarbitone (4 mg in 0.5 ml, approximately 60 mg/kg) given by intraperitoneal injection. The rats were then placed briefly on a heated pad, to distend their tail veins, and given an intravenous tail vein injection of the peptides 20 minutes after receiving the anesthetic. The intravenous injection was of 0.1 ml using a 1 ml syringe. The injections contained graded doses of peptides or the vehicle (vehicle for all peptides given intravenously was a buffer of 20 mM sodium acetate, 45 g/l mannitol, pH 5.0). Ten minutes after the intravenous injection blood was taken by cardiac puncture, using a 3 ml syringe, and the rats were then sacrificed.
# The blood was then clotted on ice, centrifuged, serum decanted and frozen for subsequent analysis using the rat GH ELISA described elsewhere in the application. For the rat GH ELISA the serum was diluted 1:50 or 1:250, depending on the expected serum GH concentrations achieved, and assayed in duplicate.
# [1] = Table III, formula IV compounds
# [2] = Table IV, formula III compounds
compound,measurement,setting,value
"CN(C(=O)C1CCNCC1)C(Cc1ccc2ccccc2c1)C(=O)N[C@H](Cc1c[nH]c2ccccc12)C(=O)N[C@@H](Cc1ccccc1)C(=O)NC(CCCCN)C(N)=O (stereo partly drawn) [(inip) nmb w F K amide, (inip)-(N-Me-DβNal)-DTrp-Phe-Lys-amide] (H-[Inp][ξNMe2Nal][dW]F[ξK]-NH2)",EC50,rat pituitary cells; [1],0.2 nM
same,RAT IV ED50,growth hormone secretion; Table III,0.2 µg
"NC(=O)[C@H](Cc1ccccc1)NC(=O)[C@@H](Cc1c[nH]c2ccccc12)NC(=O)[C@@H](Cc1ccc2ccccc2c1)NC(=O)C1CCNCC1 [(inip) b w F amide, (inip)-DβNal-(D-Trp)-Phe-amide] (H-[Inp][d2Nal][dW]F-NH2)",EC50,rat pituitary cells; [2],0.1 nM
same,RAT IV ED50,growth hormone secretion; Table IV,0.67 µg
"NCCCCNC(=O)[C@H](Cc1ccc2ccccc2c1)NC(=O)[C@H](Cc1ccc2ccccc2c1)NC(=O)[C@@H](Cc1ccccc1)NC(=O)CCCCN [(Ava) f B B bam, (5-aminovaleryl)-DPhe-βNal-βNal-[N-(4-aminobutyl)] amide]",EC50,"rat pituitary cells; Table VI, retroinverso compounds of formula V",22 nM
same,RAT IV ED50,growth hormone secretion; Table VI,100 µg
CN(C(=O)CCCN)[C@H](Cc1ccc2ccccc2c1)C(=O)N[C@H](Cc1ccc2ccccc2c1)C(=O)N[C@@H](Cc1ccccc1)C(N)=O [(Ab) nmb b F amide] (H-[GABA][dNMe2Nal][d2Nal]F-NH2),EC50,rat pituitary cells; [2],0.2 nM
same,RAT IV ED50,growth hormone secretion; Table IV,20 µg
CN(C(=O)[C@@H](Cc1ccc2ccccc2c1)NC(=O)C1CCNCC1)[C@@H](CN)Cc1ccc2ccccc2c1 [(inip) b mbm],EC50,"rat pituitary cells; Table V, formula II compounds",7 nM
same,RAT IV ED50,growth hormone secretion; Table V,20 µg
NCCCCC(=O)N[C@H](Cc1ccc2ccccc2c1)C(=O)N[C@H](Cc1ccc2ccccc2c1)C(=O)N[C@@H](CCc1ccccc1)C(=O)N[C@@H](CCCCN)C(N)=O [(Ava) b b hF K amide] (H-[Ava][d2Nal][d2Nal][hPhe]K-NH2),EC50,rat pituitary cells; [1],5 nM
same,RAT IV ED50,growth hormone secretion; Table III,50 µg
CCCC[C@H](NC(=O)[C@@H](Cc1ccc2ccccc2c1)NC(=O)[C@@H](Cc1ccc2ccccc2c1)NC(=O)C1CCNCC1)C(N)=O [(inip) b b nL amide] (H-[Inp][d2Nal][d2Nal][Nle]-NH2),EC50,rat pituitary cells; [2],4.3 nM
same,RAT IV ED50,growth hormone secretion; Table IV,3.3 µg
O=C(N[C@H](Cc1ccc2ccccc2c1)C(=O)N[C@@H](CO)Cc1ccc2ccccc2c1)C1CCNCC1 [(inip) b bol],EC50,"rat pituitary cells; Table V, formula II compounds",2 nM
same,RAT IV ED50,growth hormone secretion; Table V,10 µg
NC(=O)CCN(CCc1ccccc1)C(=O)[C@@H](Cc1ccc2ccccc2c1)NC(=O)[C@@H](Cc1ccc2ccccc2c1)NC(=O)C1CCNCC1 [(inip) b b feb amide],EC50,rat pituitary cells; [2],0.3 nM
same,RAT IV ED50,growth hormone secretion; Table IV,0.67 µg
NCCCCCCC(=O)N[C@H](Cc1ccc2ccccc2c1)C(=O)N[C@H](Cc1ccc2ccccc2c1)C(=O)N[C@@H](Cc1ccccc1)C(=O)N[C@@H](CCCCN)C(N)=O [(ahp) b b F K amide] (H-[Ahp][d2Nal][d2Nal]FK-NH2),EC50,rat pituitary cells; [1],34.3 nM
same,RAT IV ED50,growth hormone secretion; Table III,100 µg
NC(=O)[C@H](Cc1ccc2ccccc2c1)NC(=O)[C@@H](Cc1ccc2ccccc2c1)NC(=O)[C@@H](Cc1ccc2ccccc2c1)NC(=O)C1CCNCC1 [(inip) b b B amide] (H-[Inp][d2Nal][d2Nal][2Nal]-NH2),EC50,rat pituitary cells; [2],0.1 nM
same,RAT IV ED50,growth hormone secretion; Table IV,50 µg
CN(C(=O)C1CCNCC1)[C@H](Cc1ccc2ccccc2c1)C(=O)N[C@H](Cc1ccc2ccccc2c1)C(=O)N[C@@H](Cc1ccccc1)C(=O)O [(inip) nmb b F acid] (H-[Inp][dNMe2Nal][d2Nal]F-OH),EC50,rat pituitary cells; [2],1.4 nM
same,RAT IV ED50,growth hormone secretion; Table IV,5 µg
"NCCCCC(NC(=O)[C@H](Cc1cccc2ccccc12)NC(=O)[C@@H](Cc1ccc2ccccc2c1)NC(=O)C(Cc1ccc2ccccc2c1)NC(=O)C1CCNCC1)C(N)=O (stereo partly drawn) [(inip) b b npA K amide, (inip)-DβNal-DβNal-αNal-Lys-amide] (H-[Inp][ξ2Nal][d2Nal][1Nal][ξK]-NH2)",EC50,rat pituitary cells; [1],0.1 nM
same,RAT IV ED50,growth hormone secretion; Table III,1 µg
NCCCCC(=O)N[C@H](Cc1ccc2ccccc2c1)C(=O)N[C@H](Cc1ccc2ccccc2c1)C(=O)N[C@@H](Cc1ccccc1)C(=O)N[C@@H](CCCCN)C(N)=O [(Ava) b b F K amide] (H-[Ava][d2Nal][d2Nal]FK-NH2),EC50,rat pituitary cells; [1],2.8 nM
same,RAT IV ED50,growth hormone secretion; Table III,2.6 µg
NCCCC[C@H](NC(=O)[C@H](Cc1ccccc1)NC(=O)[C@@H](Cc1ccc2ccccc2c1)NC(=O)[C@@H](Cc1ccc2ccccc2c1)NC(=O)c1ccncc1)C(N)=O [(pyc) b b F K amide] (Isonicotinoyl-[d2Nal][d2Nal]FK-NH2),EC50,rat pituitary cells; [1],> 300 nM
same,RAT IV ED50,growth hormone secretion; Table III,200 µg
CN(C(=O)[C@@H](Cc1ccc2ccccc2c1)NC(=O)CCCCN)[C@H](Cc1ccc2ccccc2c1)C(=O)N[C@@H](Cc1ccccc1)C(=O)N[C@@H](CCCCN)C(N)=O [(Ava) b nmb F K amide] (H-[Ava][d2Nal][dNMe2Nal]FK-NH2),EC50,rat pituitary cells; [1],3.8 nM
same,RAT IV ED50,growth hormone secretion; Table III,100 µg
NCCCCC(=O)N[C@H](Cc1ccc2ccccc2c1)C(=O)N[C@H](Cc1ccc2ccccc2c1)C(=O)N[C@@H](Cc1ccccc1)C(=O)N[C@@H](CCCCN)C(=O)N[C@@H](Cc1ccc(O)cc1)C(N)=O [(Ava) b b F K Y amide] (H-[Ava][d2Nal][d2Nal]FKY-NH2),EC50,rat pituitary cells; [1],13.6 nM
same,RAT IV ED50,growth hormone secretion; Table III,20 µg
CNC(=O)[C@H](Cc1ccccc1)NC(=O)[C@@H](Cc1ccc2ccccc2c1)NC(=O)[C@@H](Cc1ccc2ccccc2c1)NC(=O)C1CCNCC1 [(inip) b b F mam] (H-[Inp][d2Nal][d2Nal]F-NHMe),EC50,rat pituitary cells; [1],2 nM
same,RAT IV ED50,growth hormone secretion; Table III,2 µg
COC(=O)[C@H](Cc1ccccc1)NC(=O)[C@@H](Cc1ccc2ccccc2c1)NC(=O)[C@@H](Cc1ccc2ccccc2c1)NC(=O)C1CCNCC1 [(inip) b b F Me ester] (H-[Inp][d2Nal][d2Nal]F-OMe),EC50,rat pituitary cells; [2],2.8 nM
same,RAT IV ED50,growth hormone secretion; Table IV,2 µg
CN[C@H](Cc1ccc2ccccc2c1)C(=O)N[C@H](Cc1ccc2ccccc2c1)C(=O)N[C@@H](Cc1ccc(O)cc1)C(=O)N[C@@H](CCCCN)C(N)=O [nmb b Y K amide] (H-[dNMe2Nal][d2Nal]YK-NH2),RAT IV ED50,growth hormone secretion; Table III,500 µg
NC(=O)[C@@H]1Cc2ccccc2CN1C(=O)[C@@H](Cc1ccc2ccccc2c1)NC(=O)[C@@H](Cc1ccc2ccccc2c1)NC(=O)C1CCNCC1 [(inip) b b (Tic) amide] (H-[Inp][d2Nal][d2Nal][Tic]-NH2),RAT IV ED50,growth hormone secretion; Table IV,10 µg

# Reference: patent US7094869B2, “Low molecular weight peptidomimetic growth hormone secretagogues” (Genentech, Inc., priority 1994, dated 2006)
